How the values were obtained:
Trypanosoma cruzi [1] = assay: GSK_TCAKS: pIC50 Trypanosoma cruzi viability assay using beta-GAL activity. This assay was run at single shot at 5uM compound concentration per well. The biological reagents consisted of NIH-3T3 host cells and trypomastigotes parasitic cells; both cell types were set to a 3.3 * 10^5 cells/mL dilution in assay DMEM by means of a CASY cell counter device using a 60um capillary. 6 uL of the mixture were dispensed per well (about 1 * 10^3 host-cells and 1 * 10^3 parasites) with a Multidrop Combi dispenser. […] In all wells, the percentage of DMSO never exceeded 0.5%. Plates incubated for four days at 37C, 5% CO2. The substrate used for the assay fluorescence intensity (FLINT) readout was resorufin-beta-D-galactopiranoside (Sigma-Aldrich) at 5uM per well. It was diluted in PBS supplemented with the soft detergent Igepal (Fluka).; format: functional, organism-based, Mus musculus; conditions: Tulahuen, NIH3T3
Trypanosoma cruzi [2] = assay: (§1) GSK_TCAKS: pIC50 Trypanosoma cruzi Imaging: Infected Cells. […] Cells were then washed once with PBS before infection. T. cruzi trypomastigotes, collected at days 5 to 8 after infection from LLC-MK2 parasite infected cultures, were allowed to swim out for 4h at 37C from a centrifuged pellet (2,500 rpm/10 min/room temperature). Trypomastigotes were then collected and counted in a CASY Cell Counter. Trypomastigotes, in supplemented DMEM, were added to H9c2 cultures in a multiplicity of infection of 1 and incubated for 18 h. Cells were washed once with PBS before incubation of the infected H9c2 monolayer with trypsin (Life-Technologies) to detach cells from the flask. Cells were counted in a CASY Cell Counter using a 150 um capillary and their density set at 5 * 10^4 cells per mL in supplemented assay DMEM. Infected H9c2 were dispensed into 384-well poly-lysine coated assay plates at 50uL per well using a Multidrop Combi dispenser. After seeding them, the plates were incubated at 37C, 5% CO2 for 72h. Cultures were then fixed and stained by addition of 50 uL of a solution containing 8% formaldehyde and 4 uM DRAQ5 DNA dye (BioStatus, UK) per well. […] Five images were collected per well for reliable statistical analysis. Automated image analysis was performed with a script developed on Acapella High Content Imaging and Analysis Software (PerkinElmer). Output: percentage of infected cells per well as a second infection marker.; format: functional, organism-based, Rattus norvegicus; conditions: H9c2, 4 h
Trypanosoma cruzi [3] = assay: GSK_TCAKS: pIC50 Trypanosoma cruzi Imaging: Amastigotes/Cell. […] Cells were then washed once with PBS before infection. T. cruzi trypomastigotes, collected at days 5 to 8 after infection from LLC-MK2 parasite infected cultures, were allowed to swim out for 4h at 37C from a centrifuged pellet (2,500 rpm/10 min/room temperature). Trypomastigotes were then collected and counted in a CASY Cell Counter. Trypomastigotes, in supplemented DMEM, were added to H9c2 cultures in a multiplicity of infection of 1 and incubated for 18 h. Cells were washed once with PBS before incubation of the infected H9c2 monolayer with trypsin (Life-Technologies) to detach cells from the flask. Cells were counted in a CASY Cell Counter using a 150 um capillary and their density set at 5 * 10^4 cells per mL in supplemented assay DMEM. Infected H9c2 were dispensed into 384-well poly-lysine coated assay plates at 50uL per well using a Multidrop Combi dispenser. After seeding them, the plates were incubated at 37C, 5% CO2 for 72h. Cultures were then fixed and stained by addition of 50 uL of a solution containing 8% formaldehyde and 4 uM DRAQ5 DNA dye (BioStatus, UK) per well. […] Five images were collected per well for reliable statistical analysis. Automated image analysis was performed with a script developed on Acapella High Content Imaging and Analysis Software (PerkinElmer). Output: number of amastigotes per cell as infection level measurement.; format: functional, organism-based, Rattus norvegicus; conditions: H9c2, 4 h
Trypanosoma cruzi [4] = assay: as §1, with “H2C9” for “Trypanosoma cruzi”, “H9c2 Host Cardiomyocytes.” for “Infected Cells.”, “Number” for “percentage”, “H9c2 Host Cardiomyocytes nuclei to determine drug-related cytotoxicity.” for “infected cells per well as a second infection marker.”; format: functional, organism-based, Rattus norvegicus; conditions: H9c2, 4 h
Leishmania donovani [5] = assay: GSK_TCAKS: pIC50 Leishmania donovani viability assay using fluorescence intensity. Assay plates (1536-well) were prepared by adding 30nL per well of compound. For single shot assay, the final compound concentration was 5uM. […] Briefly, eGFP LdBOB axenic amastigotes were harvested, fixed and counted in a CASY cell counter (Roche-Applied Science). A final concentration of 1.5 * 10^5 cells per well were prepared in amastigote media containing 500 U/mL penicillin/streptomycin (Invitrogen) and 6uL was dispensed to each experimental well using a Multidrop Combi dispenser (Thermo Scientific). 6uL of assay media was dispensed to control columns used as reference for 100% compound response. Following incubation for 72 h at 37C, 5% CO2, 2 uL of resazurin was added to each well at a final concentration of 0.5 mM in phosphate buffered saline (PBS) with IGEPAL (Sigma-Aldrich), 0.05% (v/v).; format: functional, organism-based
Leishmania donovani [6] = assay: (§2) GSK_TCAKS: pIC50 Leishmania donovani Imaging: Infected Macrophages. Assay plates (384-well) were prepared by adding 250nL of compound to each well. For single shot assay, the final compound concentration was 5 uM. […] Automated image analysis was performed with a script developed on Acapella High Content Imaging and Analysis Software (PerkinElmer). Output: Percent of infected macrophage cells were reported for each well.; format: functional, organism-based, Homo sapiens; conditions: THP-1
Leishmania donovani [7] = assay: as §2, with “Amastigotes/Macrophages.” for “Infected Macrophages.”, “Average number” for “Percent”, “amastigotes per” for “infected”, “cell” for “cells”; format: functional, organism-based, Homo sapiens; conditions: THP-1
Leishmania donovani [8] = assay: as §2, with “THP-1 Host” for “Infected”, “THP-1 cell count” for “Percent of infected macrophage cells”; format: functional, organism-based, Homo sapiens
[9] = tested on: Trypanosoma brucei brucei; assay: GSK_TCAKS: pIC50 Trypanosoma brucei viability assay using fluorescence intensity. Assay plates (1536-well) were prepared by dispensing 25nL of compound solution per well using an Echo acoustic dispenser (Labcyte).; format: functional, organism-based; conditions: Lister 427, 2 h
[10] = tested on: Trypanosoma brucei brucei; assay: GSK_TCAKS: pIC50 Trypanosoma brucei viability assay using luminiscence. Assay plates (1536-well) were prepared. T. brucei cultures were harvested and counted in a CASY cell counter. A parasite suspension was prepared at a final concentration of 5 * 10^4 cells/mL in complete HMI9 medium and 6uL was dispensed to all wells containing compounds using a Multidrop Combi dispenser. 6uL of HMI9 media with 0.4% DMSO were dispensed to control columns. Plates were incubated for 24 h at 37C, 5% CO2 then tempered for 10 min at room temperature. ATP content was quantified by adding 4 uL of CellTiter-Glo Reagent (Promega) according to the manufacturer's instructions. Luminescence was measured using a ViewLux.; format: functional, organism-based; conditions: Lister 427, CASY
[11] = GSK_TCAKS: pIC50 HepG2 human cell line viability assay using luminiscence. […] Seeding density was checked to ensure that new mono-layers were not more than 50% confluent at the time of harvesting. Cell suspension was added to 500 mL of the same medium at a final density of 1.2 * 10^5 cells/mL. This cell suspension was dispensed (25 uL, 3000 cells per well) into 384-well clear-bottom plates using a Multidrop Combi dispenser. Prior to addition of the cell suspension, the screening compounds (250 nL) were pre-dispensed into the plates with an Echo liquid handler. Plates were incubated for 48 h at 37C, 5% CO2. After incubation, plates equilibrated at room temperature for 30 min before proceeding to develop the luminescent signal. The signal developer, CellTiter-Glo Reagent, was allowed to equilibrate at room temperature for 30 min and added to the plates (25uL per well) using a Multidrop Combi dispenser. Plates were left for 10 min at room temperature for stabilization and then read using a ViewLux.; format: toxicity, cell-based
NIH3T3 = assay: GSK_TCAKS: pIC50 NIH 3T3 cell line viability assay using luminiscence. Tissue culture surface treated assay plates (1536-well) were used. […] The 100% cells survival control was determined exposing the host-cells to a 0.5% DMSO concentration, whereas the 100% toxicity control was achieved by seeding the cells in presence of Amphotericin B at 50uM. Plates were incubated for four days at 37C, 5% CO2. The assay readout was developed by addition of 5uL of CellTiter-Glo Reagent following the manufacturer's instructions. Luminiscence was measured using a ViewLux.; format: functional, cell-based; conditions: Mus musculus, NIH3T3, 96 h
[12] = biological target: Sterol 14-alpha demethylase (Trypanosoma cruzi (strain CL Brener), UniProt Q7Z1V1); assay: GSK_TCAKS: pIC50 CYP51 from Trypanosoma cruzi.; format: functional
Sequence of Sterol 14-alpha demethylase (Q7Z1V1 whole entry): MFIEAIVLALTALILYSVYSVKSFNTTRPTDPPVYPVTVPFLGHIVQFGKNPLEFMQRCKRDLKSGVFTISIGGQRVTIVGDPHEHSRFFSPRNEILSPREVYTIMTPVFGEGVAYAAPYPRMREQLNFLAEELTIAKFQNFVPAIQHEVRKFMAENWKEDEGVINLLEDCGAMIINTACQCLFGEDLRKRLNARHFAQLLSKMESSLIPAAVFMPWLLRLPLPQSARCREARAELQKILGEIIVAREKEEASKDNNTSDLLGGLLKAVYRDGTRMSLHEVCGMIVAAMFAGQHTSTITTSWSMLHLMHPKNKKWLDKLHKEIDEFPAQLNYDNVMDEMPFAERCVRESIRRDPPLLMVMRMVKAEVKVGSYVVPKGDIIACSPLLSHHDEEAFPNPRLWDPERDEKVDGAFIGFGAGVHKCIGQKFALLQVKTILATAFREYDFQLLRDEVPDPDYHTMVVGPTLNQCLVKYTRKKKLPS

Row | SMILES | IC50 (Trypanosoma cruzi [1]) [µM] | IC50 (Trypanosoma cruzi [2]) [µM] | IC50 (Trypanosoma cruzi [3]) [µM] | IC50 (Trypanosoma cruzi [4]) [µM] | IC50 (Leishmania donovani [5]) [µM] | IC50 (Leishmania donovani [6]) [µM] | IC50 (Leishmania donovani [7]) [µM] | IC50 (Leishmania donovani [8]) [µM] | IC50 [9] [µM] | IC50 [10] [µM] | IC50 at 48 h [11] [µM] | IC50 (NIH3T3) [µM] | IC50 [12] [µM]
1 | CC(=O)Nc1ccc(-c2noc(CC3CCCN(Cc4cccc(F)c4C)C3)n2)cc1 (centres undefined) | 1 | 2 | 1.26 | 31.6 | 39.8 | 31.6 | 12.6 | > 50.1 | 20 | 25.1 | > 100 | 25.1 | > 100
2 | N#Cc1ccc(S(=O)(=O)N2CCC3(CCN(c4ccccc4)C3=O)CC2)cc1 | 1.26 | 1 | 0.631 | > 50.1 | > 50.1 | > 50.1 | > 50.1 | > 50.1 | > 39.8 | > 39.8 | > 100 | > 50.1 | > 100
3 | Cc1cccc(NS(=O)(=O)c2cnc3sc(C)cn3c2=O)c1 | 1.26 | 2 | 1 | 6.31 | > 50.1 | > 50.1 | 5.01 | > 50.1 | > 39.8 | > 39.8 | > 100 | > 50.1 | > 100
4 | O=C(N1CCc2ccccc2CC1)C1(C(=O)N2CCC(n3c(=O)[nH]c4ncccc43)CC2)CC1 | 0.631 | 0.794 | 0.631 | > 50.1 | > 50.1 | > 50.1 | > 50.1 | > 50.1 | > 39.8 | > 39.8 | > 100 | 39.8 | 0.316
5 | COc1ccc2ncc(=O)n(CCN3CCOC(CNCc4ccc(C(F)(F)F)cc4F)C3)c2n1 (centres undefined) | 0.398 | 1.58 | 0.631 | > 50.1 | 39.8 | > 50.1 | > 50.1 | > 50.1 | 0.631 | 2.51 | > 100 | 3.98 | 10
6 | CS(=O)(=O)c1cccc(CNC(=O)c2cncc(N3CCN(c4ccc(F)cc4)CC3)c2)c1 | 0.631 | 0.398 | 0.251 | > 50.1 | > 50.1 | > 50.1 | > 50.1 | > 50.1 | 31.6 | > 39.8 | > 100 | 25.1 | 12.6
7 | O[C@H]1CC[C@H](Nc2nccc(-c3sc(C4CCOCC4)nc3-c3ccc(F)c(F)c3)n2)CC1 | 0.316 | 0.316 | 0.2 | 31.6 | 3.16 | 5.01 | 2.51 | 20 | 2 | 3.98 | 25.1 | 39.8 | > 100
8 | O=c1oc2ccccc2n1C1CCN(Cc2ccccc2-c2cccnc2)CC1 | 0.501 | 0.316 | 0.398 | > 50.1 | > 50.1 | > 50.1 | 6.31 | 12.6 | 39.8 | > 39.8 | > 100 | 15.8 | 0.1

Source: ChEMBL document CHEMBL3430912, “GSK Tres Cantos Anti-Kinetoplastid Screening (TCAKS) Data”
